The test system of one assay is CD53 mRNA. Briefly: mRNA quantification (RT PCR) of CD53 in muscles of mdx mice. It is filed as in vivo, mouse. From the text:
(§1) A total of a ninety C57BU10ScSn-Dmdmdx/J male mice, 3 weeks of age (+/-3days), were transferred to the in vivo research laboratory in Bar Harbor, Me. Additional ten […] male mice 3 weeks of age (+/-3 days) were also transferred and served as a wild-type control group. The mice were ear notched for identification and housed in ventilated polysulfone cages with HEPA filtered air at a density of 3-4 mice per cage. The animal room was lit entirely with artificial fluorescent lighting on controlled 12 hour light/dark cycle (6 a.m. to 6 p.m. light). […] The animal room was set for 15 air exchanges per hour. Filtered tap water acidified to a pH of 2.8 to 3.2 was provided ad libitum. […] Prior to study initiation, mice were acclimated for 3 days. Mice were tested for grip strength and in the open field at ages 25 and 26 days, and drug regimen was initiated at age 27 days. Mice were monitored twice weekly for clinical observations and body weights. […] 24 hours after the second open field tests, blood was collected by retro-orbital bleeding, and mice were humanely euthanized by CO2 asphyxiation. One triceps surae was collected fresh and processed for immune cell sorting, one tibialis anterior was preserved in RNALater for RNA extraction, one whole hind limb and the diaphragm were fixed in 2% paraformaldehyde overnight at 4° C. for paraffin embedding and histology stains. Total RNAs were extracted with a modification of the Trizol method, reverse transcribed, and mRNAs of TGFβ, and the following inflammation markers were quantified by the SYBR green method with GAPDH as a normalizer: […]

For another assay, the system named is Lgals3 mRNA. Briefly: mRNA quantification (RT PCR) of Lgals3 in muscles of mdx mice. It is filed as in vivo, mouse.
Source text: as §1

A further assay relates to TNF mRNA. Briefly: mRNA quantification (RT PCR) of TNF in muscles of mdx mice. It is filed as in vivo, mouse.
Source text: as §1

The next assay relates to CD48 mRNA. Briefly: mRNA quantification (RT PCR) of CD48 in muscles of mdx mice. It is filed as in vivo, mouse.
Source text: as §1

Assay [1] deals with CD11b+Ly6Clow anti-fibrotic myeloid cells (Ly6C- monocytes). The assay can be described thus: Cell sorting: recruitment of CD11b+Ly6Clow anti-fibrotic myeloid cells into muscles of mdx mice. The conditions noted are these: for % change compared to vehicle (CD11b+Ly6Clow anti-fibrotic myeloid cells) / % of viable cells (CD11b+Ly6Clow anti-fibrotic myeloid cells): 4 weeks, mdx mice muscle. It is filed as in vivo, mouse. From the text:
(§2) In this example, labelled antibodies were used to assess infiltration of inflammatory myeloid and lymphoid cells into muscles of mdx mice following treatment of the mice with different doses of the glucocorticoid prednisolone, and the VAP-1 inhibitors carbidopa and benserazide. CD11b is a transmembrane glycoprotein which is expressed on the surface of granulocytes (including neutrophils and eosinophils), monocytes, NK cells, dendritic cells, tissue macrophages and subsets of T and B cells. Labelled antibody to CD11b was used to assess infiltration of inflammatory myeloid cells into muscles of mdx mice. Labelled antibody to Ly6C was used to assess infiltration of pro- and anti-inflammatory monocytes into muscles of mdx mice. Labelled antibody to CD4 and CD8a antigen was used to assess infiltration of Th cells (CD4^+CD8^-) and double negative (CD4^-CD8^-) T cells into muscles of mdx mice. A total of a ninety C57BU10ScSn-Dmdmdx/J male mice, 3 weeks of age (+/-3days), were transferred to the in vivo research laboratory in Bar Harbor, Me. Additional ten […] male mice 3 weeks of age (+/-3 days) were also transferred and served as a wild-type control group. The mice were ear notched for identification and housed in ventilated polysulfone cages with HEPA filtered air at a density of 3-4 mice per cage. The animal room was lit entirely with artificial fluorescent lighting on controlled 12 hour light/dark cycle (6 a.m. to 6 p.m. light). […] The animal room was set for 15 air exchanges per hour. Filtered tap water acidified to a pH of 2.8 to 3.2 was provided ad libitum. […] Prior to study initiation, mice were acclimated for 3 days. Mice were tested for grip strength and in the open field at ages 25 and 26 days, and drug regimen was initiated at age 27 days. Mice were monitored twice weekly for clinical observations and body weights. […] 24 hours after the second open field tests, blood was collected by retro-orbital bleeding, and mice were humanely euthanized by CO2 asphyxiation. One triceps surae was collected fresh and processed for immune cell sorting, one tibialis anterior was preserved in RNALater for RNA extraction, one whole hind limb and the diaphragm were fixed in 2% paraformaldehyde overnight at 4° C. for paraffin embedding and histology stains. For immune cell sorting, muscle samples were enzymatically and mechanically dissociated following manufacturer instructions (Skeletal Muscle Dissociation KitCatalog no. 130-098-305, Miltenyi Biotec). Cells were stained with the following antibodies: [table] Stained cells were analyzed on a BD LSR II cytometer and counts of different populations were expressed in percentage of the number of live cells counted.

The subject of the next assay is diaphragms of mdx mice. The assay can be described thus: H & E staining of diaphragm sections of mdx mice (inflammatory infiltrates). It is filed as in vivo, mouse. The conditions noted are these: 20 mg/kg po once per day, 6 weeks, 12 week old mdx mice. From the text: (§3) The most studied animal model for DMD is the mdx mouse. This was first described by Bulfield et al (Proc. Natl. Acad. Sci. USA, 1984, 81:1189-1192). It has a point mutation within its dystrophin gene, and as a result the mouse has no functional dystrophin in its muscles. […] As it ages, certain muscle types (including the diaphragm) show weakness and increased fibrosis. […] This provides a quantitative framework for studying the pathogenesis of dystrophy (Stedman et al, Nature, 1991, 352, 536-539).
(§4) 12 week old mdx mice were treated with benserazide (20 mg/kg, po, once per day) or vehicle (water, once per day), in groups of 8 mice. After 6 weeks of treatment, diaphragms of the mice were collected and flash frozen in liquid nitrogen-cooled isopentane. The sections were stored on slides at −20° C. until required.
(§5) Hematoxylin and eosin (H & E) staining was used to show cytoplasmic, nuclear, and extracellular matrix features. Hematoxylin stains nucleic acids, and eosin stains proteins nonspecifically. Staining of F4/80 antigen (a glycoprotein expressed by murine macrophages) was used to show macrophages.

For a further assay, the system named is CD11b mRNA. The assay can be described thus: mRNA quantification (RT PCR) of CD11b in muscles of mdx mice. It is filed as in vivo, mouse.
Source text: as §1

For assay [2], the system named is lymphoid CD4-CD8- (double negative, DN) T cells. The assay can be described thus: Cell sorting: recruitment of lymphoid CD4-CD8- (double negative, DN) T cells into muscles of mdx mice. It is filed as in vivo, mouse. The conditions noted are these: mdx mice muscle.
Source text: as §2

The test system of assay [3] is lymphoid CD4+CD8- T cells. Briefly: Cell sorting: recruitment of lymphoid CD4+CD8- T cells into muscles of mdx mice. It is filed as in vivo, mouse. The conditions noted are these: mdx mice muscle.
Source text: as §2

A further assay has as its system CD11b+ myeloid cells. The assay can be described thus: Cell sorting: recruitment of CD11b+ myeloid cells into muscles of mdx mice. The conditions noted are these: mdx mice muscle; for % change compared to vehicle (CD11b+ myeloid cells) / % of viable cells (CD11b+ myeloid cells): 4 weeks. It is filed as in vivo, mouse.
Source text: as §2

The test system of assay [4] is CD11b+Ly6Chigh profibrotic myeloid cells (Ly6C+ monocytes). The assay can be described thus: Cell sorting: recruitment of CD11b+Ly6Chigh profibrotic myeloid cells into muscles of mdx mice. It is filed as in vivo, mouse. The following applies: mdx mice muscle; for % change compared to vehicle (CD11b+Ly6Chigh profibrotic myeloid cells) / % of viable cells (CD11b+Ly6Chigh profibrotic myeloid cells): 4 weeks.
Source text: as §2

In assay [5] the test system is CD11b+Ly6Chigh profibrotic : CD11b+Ly6Clow anti-fibrotic myeloid cells. Briefly: Ratio of profibrotic to anti-fibrotic myeloid cells in mdx mouse muscle. It is filed as in vivo. The conditions noted are these: both doses.
Source text: In this example, labelled antibodies were used to assess infiltration of inflammatory myeloid and lymphoid cells into muscles of mdx mice following treatment of the mice with different doses of the glucocorticoid prednisolone, and the VAP-1 inhibitors carbidopa and benserazide. […] Labelled antibody to CD11b was used to assess infiltration of inflammatory myeloid cells into muscles of mdx mice. Labelled antibody to Ly6C was used to assess infiltration of pro- and anti-inflammatory monocytes into muscles of mdx mice. Labelled antibody to CD4 and CD8a antigen was used to assess infiltration of Th cells (CD4^+CD8^−) and double negative (CD4^−CD8^−) T cells into muscles of mdx mice.
A total of a ninety C57BU10ScSn-Dmdmdx/J male mice, 3 weeks of age (+/−3days), were transferred to the in vivo research laboratory in Bar Harbor, Me. Additional ten C57BU10ScSnJ male mice 3 weeks of age (+/−3 days) were also transferred and served as a wild-type control group. The mice were ear notched for identification and housed in ventilated polysulfone cages with HEPA filtered air at a density of 3-4 mice per cage. […]
A further assay relates to IL-6 mRNA. Briefly: mRNA quantification (RT PCR) of IL-6 in muscles of mdx mice. It is filed as in vivo, mouse. The following applies: mdx mice muscle.
Source text: as §1

For another assay, the system named is Mpeg1 mRNA. The assay can be described thus: mRNA quantification (RT PCR) of Mpeg1 in muscles of mdx mice. It is filed as in vivo, mouse. The following applies: mdx mice muscle.
Source text: as §1

Another assay relates to TGFβ mRNA. Briefly: mRNA quantification (RT PCR) of pro-fibrotic growth factor TGFβ in muscles of mdx mice. It is filed as in vivo, mouse.
Source text: as §1

Another assay concerns macrophages. Briefly: Staining of murine F4/80 antigen in diaphragm sections of mdx mice (macrophage infiltration). It is filed as in vivo, mouse. The following applies: 20 mg/kg po once per day, 6 weeks, 12 week old mdx mice.
Source text: as §3, §4, §5

Another assay relates to Ly6C1 mRNA. Briefly: mRNA quantification (RT PCR) of Ly6C1 in muscles of mdx mice. The following applies: mdx mice muscle. It is filed as in vivo, mouse.
Source text: as §1

For a further assay, the system named is T cells. The conditions noted are these: correlated with reduction in muscle necrosis and fibrosis; very early studies; cited from earlier work.
The subject of the next assay is eosinophils. The conditions noted are these: DMD / mdx dystrophic muscle, previous studies; cited from earlier work.
Setting [6] is: 20 mg/kg po twice/day, mdx mice muscle, GAPDH as normalizer.
Where [7] appears, read: treatment alone, mdx mouse muscle.
[8] abbreviates: doses as in the table (carbidopa 100, benserazide 20 mg/kg po twice/day; prednisolone 1 mg/kg ip once/day).

Marks after values point to notes of the source that are not given here.

In the case of `NC(CO)C(=O)NNCc1ccc(O)c(O)c1O` (stereo not drawn) [Benserazide], the “CD53 mRNA level” value in the assay with CD53 mRNA (setting [6]) is reported as 0.95. For the same molecule, the “effect on the level of CD53 mRNA” value in the assay on CD53 mRNA (setting [7]) is on record as “not significantly affected”. In addition, the “Lgals3 mRNA level” value in the assay with Lgals3 mRNA (setting [6]) was determined as 0.95. For the same molecule, in the assay on Lgals3 mRNA (setting [7]), the “effect on the level of Lgals3 mRNA” value is given as “no significant effect”. Besides, the “TNF mRNA level” value with TNF mRNA (setting [6]) worked out at 0.79. The “effect on the level of TNF mRNA” value with TNF mRNA (setting [7]) was “No significant effect”. Also, the “CD48 mRNA level” value with CD48 mRNA (setting [6]) was 0.85. Also, in the assay on CD48 mRNA (setting [7]), the “effect on the level of CD48 mRNA” value is recorded as “no significant effect”. In [1] (7 mg/kg po twice/day), the “% change compared to vehicle (CD11b+Ly6Clow anti-fibrotic myeloid cells)” value is listed as −16.5% and the “% of viable cells (CD11b+Ly6Clow anti-fibrotic myeloid cells)” value is 22.7%. In assay [1] (20 mg/kg po twice/day), the “% change compared to vehicle (CD11b+Ly6Clow anti-fibrotic myeloid cells)” value is reported as −27.9% and the “% of viable cells (CD11b+Ly6Clow anti-fibrotic myeloid cells)” value is listed as 19.6* %. The “inhibition of recruitment of anti-fibrotic myeloid cells compared with vehicle” value in assay [1] (higher dose of benserazide, statistically significant) came out at 27.9%. In addition, the “reduction in inflammatory infiltrates compared to vehicle (H & E staining)” value with diaphragms of mdx mice is listed as about 50%. Further, the “CD11b mRNA level” value with CD11b mRNA (setting [6]) amounted to 1.12. Besides, the “effect on the level of CD11b mRNA” value in the assay with CD11b mRNA (setting [7]) was “not significantly affected”. In addition, in [2] (20 mg/kg po twice/day, 4 weeks), the “% change compared to vehicle (lymphoid CD4-CD8- DN T cells)” value is recorded as −44.8% and the “% of viable cells (lymphoid CD4-CD8- DN T cells)” value is given as 18** %. The “reduction of recruitment of lymphoid DN T cells compared with vehicle” value in assay [2] (setting [8]) is “over 50%”. In [3] (20 mg/kg po twice/day, 4 weeks), the “% change compared to vehicle (lymphoid CD4+CD8- T cells)” value is on record as −37.0% and the “% of viable cells (lymphoid CD4+CD8- T cells)” value is recorded as 9.2* %. Further, the “reduction of recruitment of lymphoid CD4+CD8- T cells compared with vehicle” value in assay [3] (setting [8]) is “over 50%”. Also, in the assay on CD11b+ myeloid cells (7 mg/kg po twice/day), the “% change compared to vehicle (CD11b+ myeloid cells)” value is reported as −13.7% and the “% of viable cells (CD11b+ myeloid cells)” value is listed as 31.4%. Besides, in the assay with CD11b+ myeloid cells (20 mg/kg po twice/day), the “% change compared to vehicle (CD11b+ myeloid cells)” value is given as −32.4% and the “% of viable cells (CD11b+ myeloid cells)” value was 24.6* %. The “reduction of CD11b+ myeloid cell recruitment compared with vehicle” value with CD11b+ myeloid cells (higher dose of benserazide) is listed as “approximately one-third”. Further, in [4] (7 mg/kg po twice/day), the “% change compared to vehicle (CD11b+Ly6Chigh profibrotic myeloid cells)” value is on record as −11.5% and the “% of viable cells (CD11b+Ly6Chigh profibrotic myeloid cells)” value amounted to 6.49%. In [4] (20 mg/kg po twice/day), the “% change compared to vehicle (CD11b+Ly6Chigh profibrotic myeloid cells)” value is −26.9% and the “% of viable cells (CD11b+Ly6Chigh profibrotic myeloid cells)” value is given as 5.36%. The “effect on recruitment of profibrotic myeloid cells compared with vehicle” value in [4] (both doses) is listed as “little, if any, statistically significant effect”. The “relative levels of pro- and anti-fibrotic myeloid cells” value in [5] is listed as “not affected”. The “effect on IL-6 mRNA level” value with IL-6 mRNA was “No effects”. In addition, the “effect on Mpeg1 mRNA level” value in the assay on Mpeg1 mRNA was “No effects”. Moreover, the “% change compared to vehicle (TGFβ mRNA)” value in the assay with TGFβ mRNA (20 mg/kg po twice/day, mdx mice muscle) is given as −34.7%. Also, in the assay on TGFβ mRNA (setting [6]), the “TGFβ mRNA” value is reported as 0.79. In addition, the “reduction of the TGFβ mRNA level (fraction in words)” value in the assay on TGFβ mRNA (treatment alone, muscle of mdx mice) was “over a third”. Also, the “reduction in macrophage infiltration compared to vehicle (F4/80 staining)” value in the assay with macrophages is given as about 50%. For the same molecule, in the assay with Ly6C1 mRNA, the “effect on Ly6C1 mRNA level” value is reported as “No effects”.
As for `C[C@]12C=CC(=O)C=C1CC[C@@H]1[C@@H]2C(=O)C[C@@]2(C)[C@H]1CC[C@]2(O)C(=O)CO` [Prednisone, prednisone], the “effect on T cells in DMD patients” value in the assay on T cells is on record as “reduction in T cells”. Moreover, the “effect on eosinophil infiltration” value with eosinophils is given as “reduce eosinophil infiltration”.

Values taken from patent US20160101072A1, “Therapeutic uses of enzyme inhibitors” (Proximagen Limited, priority 2013, published 2016).
